{"source": "patent US8318781B2", "about": "“G-protein-conjugated receptor agonist” (Japan Science and Technology Agency, priority 2007, dated 2012)", "key": {"[1]": {"target": "T1, human GPR120 (hGPR120) (Homo sapiens, UniProt Q5NUL3)", "T1 construct": "expressed in transfected cells; doxycycline-inducible expression vector", "T1 sequence (Q5NUL3 1-361)": "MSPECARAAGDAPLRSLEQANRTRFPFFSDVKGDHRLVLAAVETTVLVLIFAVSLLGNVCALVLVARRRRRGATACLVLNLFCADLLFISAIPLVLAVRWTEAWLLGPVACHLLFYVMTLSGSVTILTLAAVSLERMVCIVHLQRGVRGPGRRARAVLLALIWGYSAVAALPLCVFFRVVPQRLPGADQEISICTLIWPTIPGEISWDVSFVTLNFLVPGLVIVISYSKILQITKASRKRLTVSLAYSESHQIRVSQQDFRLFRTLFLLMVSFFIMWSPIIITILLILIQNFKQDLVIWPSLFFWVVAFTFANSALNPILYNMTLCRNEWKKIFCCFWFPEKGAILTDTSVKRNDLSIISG", "assay": "Determination of intracellular Ca2+ concentration (FLIPR), cell line GPR120/Flp-in", "type": "cell-based"}, "[2]": {"target": "T1, human GPR120 (hGPR120)", "assay": "Determination of intracellular Ca2+ concentration (FLIPR), cell line TXGPR120", "type": "cell-based", "conditions": "TXGPR120 cells, maximum fluorescence intensity vs ligand concentration; read-out: [Ca^2+]/GPR120 pEC50 (converted)"}, "[3]": {"tested_on": "GLP-1 (Glucagon-Like Peptide) release", "assay": "GLP-1 (glucagon-like peptide) release test in mice", "type": "in vivo", "conditions": "C57BL/6J mice; for Average GLP-1 concentration: given into the colon by catheter, portal vein blood after 15 minutes, ELISA, NCG21 suspension in PEG at 100 mmol/g body weight; for increase of GLP-1 concentration in the portal blood relative to control DMSO: portal blood 15 minutes after colonic administration", "procedure": "C57BL/6J mice (8 weeks old) were anesthetized with Nembutal (pentobarbital sodium) (60 mg/kg body weight), a catheter was inserted into the colon through the celiotomy, and the solution of the test compound was administered through the catheter (NCG21 as a suspension in PEG at 100 mmol/g body weight, at a rate of 100 μl/min). After 15 minutes, a blood sample was taken from the portal vein, centrifuged at 8000 rpm for 10 minutes, and the supernatant was stored at −80° C. GLP-1 (ng/mL) was determined using ELISA kit (Wako Pure Chemical Industries, Ltd.) within the next day. Each group consists of 12 mice, except that 11 mice were used for NCG21."}, "[4]": {"target": "T2, human GPR40 (hGPR40) (Homo sapiens, UniProt O14842)", "T2 construct": "expressed in transfected cells; doxycycline-inducible expression vector", "T2 sequence (O14842 whole entry)": "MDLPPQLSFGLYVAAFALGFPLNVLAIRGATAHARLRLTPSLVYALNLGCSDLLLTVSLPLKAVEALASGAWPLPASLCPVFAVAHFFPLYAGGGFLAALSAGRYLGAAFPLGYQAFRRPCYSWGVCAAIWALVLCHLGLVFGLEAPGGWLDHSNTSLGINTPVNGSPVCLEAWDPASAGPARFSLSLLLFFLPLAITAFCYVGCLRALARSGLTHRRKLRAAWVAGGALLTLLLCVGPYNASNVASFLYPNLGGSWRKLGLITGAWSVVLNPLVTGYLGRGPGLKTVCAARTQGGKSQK", "assay": "Determination of intracellular Ca2+ concentration (FLIPR), cell line TXGPR40", "type": "cell-based"}}, "note": "Read-outs that look alike come from different tables or passages of the source.", "data": [{"smiles": "O=C(O)CCCc1ccc(OCCN(c2ccccc2)c2ccccn2)cc1", "note": "[NCG21]", "values": [{"measurement": "melting point", "value": "98 to 99", "unit": "°C"}, {"measurement": "EC50", "setting": "[1]; GPR120/Flp-in cells, maximum fluorescence intensity vs ligand concentration, read-out: [Ca^2+]/GPR120/Flp-In pEC50 (converted)", "value": 1.26, "unit": "µM"}, {"measurement": "EC50", "setting": "[2]", "value": 2.88, "unit": "µM"}, {"measurement": "Average GLP-1 concentration", "setting": "[3]", "value": 4.02, "unit": "ng/mL"}, {"measurement": "increase of GLP-1 concentration in the portal blood relative to control DMSO", "setting": "[3]", "value": 2.5, "unit": "times"}, {"measurement": "EC50", "setting": "[4]; TXGPR40 cells, maximum fluorescence intensity vs ligand concentration, read-out: [Ca^2+]/GPR40 pEC50 (converted)", "value": 18.6, "unit": "µM"}]}, {"smiles": "CC/C=C\\C/C=C\\C/C=C\\CCCCCCCC(=O)O", "note": "[LA, cis-α-linolenic acid, reference compound]", "values": [{"measurement": "Average GLP-1 concentration", "setting": "[3]", "value": 3.87, "unit": "ng/mL"}, {"measurement": "increase of GLP-1 concentration in the portal blood relative to control DMSO", "setting": "[3]", "value": 2.4, "unit": "times"}]}, {"smiles": "O=C(O)CCCCc1ccc(OCCN(c2ccccc2)c2ccccn2)cc1", "note": "[NCG23, 5-{4-[2-(2-phenylpyridinylamino)ethoxy]phenyl}pentanoic acid]", "values": [{"measurement": "melting point", "value": "74 to 75", "unit": "°C"}, {"measurement": "EC50", "setting": "[1]", "value": 9.12, "unit": "µM"}, {"measurement": "EC50", "setting": "[4]", "value": 7.76, "unit": "µM"}]}]}
